Assay results reported in ChEMBL document CHEMBL5329224, “Structure-Based Design and Evaluation of Reversible KRAS G13D Inhibitors” (ACS Med Chem Lett, 2024).

How the values were obtained:
[1] = Selectivity ratio of IC50 for inhibition of Biotinylated KRAS G13D mutant (unknown origin) to IC50 for inhibition of Biotinylated wild type KRAS (unknown origin)
GTPase KRas = GTPase KRas (Homo sapiens, UniProt P01116, G13D); assay: Inhibition of Biotinylated KRAS G13D mutant (unknown origin) incubated for 20 mins in presence of BODIPY-GDP by HTRF assay
[2] = Dissociation constant, pKa of compound; type: physicochemical
[3] = Half life in CD-1 mouse at 1 mg/kg,iv measured upto 9 hrs by LC-MS/MS analysis; type: ADME, organism-based; conditions: in vivo
[4] = Volume of distribution at steady state in CD-1 mouse at 1 mg/kg,iv measured upto 9 hrs by LC-MS/MS analysis; type: ADME, organism-based; conditions: in vivo
HCT-116 = assay: Antiproliferative activity against human HCT-116 cells assessed as cell growth inhibition incubated for 7 days by Cell Titer-Glo luminescent assay; type: functional, cell-based; conditions: HCT-116, 168 h

GTPase KRas, sequence (P01116 whole entry G13D): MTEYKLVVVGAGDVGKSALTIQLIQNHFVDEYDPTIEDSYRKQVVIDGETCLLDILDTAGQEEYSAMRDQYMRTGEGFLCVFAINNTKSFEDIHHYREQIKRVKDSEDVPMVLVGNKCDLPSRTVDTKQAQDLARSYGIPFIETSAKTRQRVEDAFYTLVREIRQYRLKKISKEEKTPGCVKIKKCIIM

Ratio IC50 [1] | IC50 (GTPase KRas) | Structure (SMILES) | further results
16 | 460 nM | C=C1CN2CCC[C@@]2(COc2nc(N3CCN(C(=O)/C=C/c4cccc5c4CNC(C)(C)C5)C[C@@H]3C)c3cc(Cl)c(-c4nc(N)cc(C)c4C(F)(F)F)c(F)c3n2)C1 | –
9.2 | 520 nM | C=C1CN2CCC[C@@]2(COc2nc(N3CCN(C(=O)/C=C/c4cc(CN(C)C)c(C)cn4)C[C@@H]3C)c3cc(Cl)c(-c4nc(N)cc(C)c4C(F)(F)F)c(F)c3n2)C1 | –
15 | 340 nM | C=C1CN2CCC[C@@]2(COc2nc(N3CCN(C(=O)/C=C/c4cc(C5CCN(C)CC5)c(C)cn4)C[C@@H]3C)c3cc(Cl)c(-c4nc(N)cc(C)c4C(F)(F)F)c(F)c3n2)C1 | –
5.7 | 530 nM | C=C1CN2CCC[C@@]2(COc2nc(N3CCN(C(=O)/C=C/c4cc(CNC)ccn4)C[C@@H]3C)c3cc(Cl)c(-c4nc(N)cc(C)c4C(F)(F)F)c(F)c3n2)C1 | pKa [2]: 8.4
– | 690 nM | C=C1CN2CCC[C@@]2(COc2nc(N3CCN(C(=O)/C=C/c4cccc5c4CNCC5)C[C@@H]3C)c3cc(Cl)c(-c4nc(N)cc(C)c4C(F)(F)F)c(F)c3n2)C1 | t1/2 [3]: 7.6 h; Vdss [4]: 0.9 L/kg; IC50 (HCT-116): 2100 nM
– | 410 nM | C=C1CN2CCC[C@@]2(COc2nc(N3CCN(C(=O)/C=C/c4cccc5c4CN4CCC5C4)C[C@@H]3C)c3cc(Cl)c(-c4nc(N)cc(C)c4C(F)(F)F)c(F)c3n2)C1 (stereo in doubt; form 1) [listing 1 of 2 here] | –
27 | – | C=C1CN2CCC[C@@]2(COc2nc(N3CCN(C(=O)/C=C/c4cccc5c4CN4CCC5C4)C[C@@H]3C)c3cc(Cl)c(-c4nc(N)cc(C)c4C(F)(F)F)c(F)c3n2)C1 (stereo in doubt; form 2) [listing 1 of 2 here] | –
9.6 | 500 nM | C=C1CN2CCC[C@@]2(COc2nc(N3CCN(C(=O)/C=C/c4cc(CNC)c(C)cn4)C[C@@H]3C)c3cc(Cl)c(-c4nc(N)cc(C)c4C(F)(F)F)c(F)c3n2)C1 | –
1.2 | 4.1 nM | C=C1CN2CCC[C@@]2(COc2nc(N3CCN(C(=O)/C=C/c4cc(CN5CCOCC5)ccn4)C[C@@H]3C)c3cc(Cl)c(-c4nc(N)cc(C)c4C(F)(F)F)c(F)c3n2)C1 | pKa [2]: 5.4
– | 550 nM | C=C1CN2CCC[C@@]2(COc2nc(N3CCN(C(=O)/C=C/c4cccc5c4CN4CCC5C4)C[C@@H]3C)c3cc(Cl)c(-c4nc(N)cc(C)c4C(F)(F)F)c(F)c3n2)C1 (stereo in doubt; form 2) [listing 2 of 2 here] | –
29 | – | C=C1CN2CCC[C@@]2(COc2nc(N3CCN(C(=O)/C=C/c4cccc5c4CN4CCC5C4)C[C@@H]3C)c3cc(Cl)c(-c4nc(N)cc(C)c4C(F)(F)F)c(F)c3n2)C1 (stereo in doubt; form 1) [listing 2 of 2 here] | –

Second part, the compound before the results:

Structure (SMILES) | Ratio IC50 [1] | IC50 (GTPase KRas) | further results
Cc1cc(N)nc(-c2cc3nc(OC[C@@H]4CCCN4C)nc4c3c(c2Cl)OC[C@@H]2CN(C(=O)CCC3(N)CCOC3)CCN42)c1C(F)(F)F (mixture of isomers) | 2.5 | 1300 nM | –
Cc1cc(N)nc(-c2cc3nc(OC[C@@H]4CCCN4C)nc4c3c(c2Cl)OC[C@@H]2CN(C(=O)C[C@H]3CCC35CNC5)CCN42)c1C(F)(F)F | 1.1 | 3500 nM | –
Cc1cc(N)nc(-c2cc3nc(OC[C@@H]4CCCN4C)nc4c3c(c2Cl)OC[C@@H]2CN(C(=O)C[C@@H]3CCNC3)CCN42)c1C(F)(F)F | 2.1 | 2600 nM | –
Cc1cc(N)nc(-c2c(Cl)c3c4c(ncnc4c2F)N2CCN(C(=O)/C=C/c4nccc5c4CNCC5)C[C@H]2CO3)c1C(F)(F)F | 5.9 | 2700 nM | –
Cc1cc(N)nc(-c2cc3nc(OC[C@@H]4CCCN4C)nc4c3c(c2Cl)OC[C@@H]2CN(C(=O)C3CCNCC3)CCN42)c1C(F)(F)F | 2.2 | 3200 nM | –
Cc1cc(N)nc(-c2cc3nc(OC[C@@H]4CCCN4C)nc4c3c(c2Cl)OC[C@@H]2CN(C(=O)CCC3CCNC3)CCN42)c1C(F)(F)F (mixture of isomers) | 2 | 2100 nM | –
Cc1cc(N)nc(-c2cc3nc(OC[C@@H]4CCCN4C)nc4c3c(c2Cl)OC[C@@H]2CN(C(=O)[C@H](C)N(C)C)CCN42)c1C(F)(F)F | 0.94 | 8200 nM | –
Cc1cc(N)nc(-c2cc3nc(OC[C@@H]4CCCN4C)nc4c3c(c2Cl)OC[C@@H]2CN(C(=O)C#CC3CCNC3)CCN42)c1C(F)(F)F (mixture of isomers) | 2.3 | 1600 nM | –
C=C1CN2CCC[C@@]2(COc2nc3c4c(c(Cl)c(-c5nc(N)cc(C)c5C(F)(F)F)c(F)c4n2)OC[C@@H]2CN(C(=O)/C=C/c4nccc5c4CNCC5)CCN32)C1 | – | 1.5 nM | t1/2 [3]: 3.2 h; Vdss [4]: 0.42 L/kg; IC50 (HCT-116): 6100 nM
Cc1cc(N)nc(-c2cc3nc(OC[C@@H]4CCCN4C)nc4c3c(c2Cl)OC[C@@H]2CN(C(=O)C3CCC5(CNC5)O3)CCN42)c1C(F)(F)F (mixture of isomers) | 2.5 | 1600 nM | –
Cc1cc(N)nc(-c2cc3nc(OC[C@@H]4CCCN4C)nc4c3c(c2Cl)OC[C@@H]2CN(C(=O)[C@@H]3CC[C@H]3N)CCN42)c1C(F)(F)F | 1.5 | 3000 nM | –
Cc1cc(N)nc(-c2cc3nc(OC[C@@H]4CCCN4C)nc4c3c(c2Cl)OC[C@@H]2CN(C(=O)CC3CCNCC3)CCN42)c1C(F)(F)F | 2 | 4800 nM | –
Cc1cc(N)nc(-c2cc3nc(OC[C@@H]4CCCN4C)nc4c3c(c2Cl)OC[C@@H]2CN(C(=O)CC3CC5(CCC5)CN3)CCN42)c1C(F)(F)F (mixture of isomers) | 1.1 | 9000 nM | –
COC1CC(N)(C(=O)N2CCN3c4nc(OC[C@@H]5CCCN5C)nc5cc(-c6nc(N)cc(C)c6C(F)(F)F)c(Cl)c(c45)OC[C@@H]3C2)C1 (mixture of isomers) | 1.5 | 880 nM | –
Cc1cc(N)nc(-c2cc3nc(OC[C@@H]4CCCN4C)nc4c3c(c2Cl)OC[C@@H]2CN(C(=O)CCN)CCN42)c1C(F)(F)F | 2.5 | 2700 nM | –
Cc1cc(N)nc(-c2cc3nc(OC[C@@H]4CCCN4C)nc4c3c(c2Cl)OC[C@@H]2CN(C(=O)CC[C@@]3(C)CCCN3)CCN42)c1C(F)(F)F | 2.4 | 1900 nM | –
Cc1cc(N)nc(-c2cc3nc(OC[C@@H]4CCCN4C)nc4c3c(c2Cl)OC[C@@H]2CN(C(=O)C3CC35CCNCC5)CCN42)c1C(F)(F)F (mixture of isomers) | 2.1 | 2400 nM | –
Cc1cc(N)nc(-c2cc3nc(OC[C@@H]4CCCN4C)nc4c3c(c2Cl)OC[C@@H]2CN(C(=O)C3(N)CC3)CCN42)c1C(F)(F)F | 1.8 | 550 nM | –
Cc1cc(N)nc(-c2cc3nc(OC[C@@H]4CCCN4C)nc4c3c(c2Cl)OC[C@@H]2CN(C(=O)/C=C/c3nccc5c3CNCC5)CCN42)c1C(F)(F)F | 6.1 | 180 nM | –
Cc1cc(N)nc(-c2cc3nc(OC[C@@H]4CCCN4C)nc4c3c(c2Cl)OC[C@@H]2CN(C(=O)C3CC(N)CCO3)CCN42)c1C(F)(F)F (mixture of isomers) | 0.41 | 14000 nM | –
C=C1CN2CCC[C@@]2(COc2nc3c4c(c(Cl)c(-c5nc(N)cc(C)c5C(F)(F)F)cc4n2)OC[C@@H]2CN(C(=O)/C=C/c4nccc5c4CNCC5)CCN32)C1 | 7.3 | 13 nM | –
Cc1cc(N)nc(-c2cc3nc(OC[C@@H]4CCCN4C)nc4c3c(c2Cl)OC[C@@H]2CN(C(=O)CC[C@@H]3CCCCN3)CCN42)c1C(F)(F)F | 2.5 | 1700 nM | –
C=C1CN2CCC[C@@]2(COc2nc3c4c(c(Cl)c(-c5nc(N)cc(C)c5C(F)(F)F)cc4n2)OC[C@@H]2CN(C(=O)/C=C/c4nccc5c4CN(C)CC5)CCN32)C1 | 0.88 | 49 nM | –
Cc1cc(N)nc(-c2cc3nc(OC[C@@H]4CCCN4C)nc4c3c(c2Cl)OC[C@@H]2CN(C(=O)CC[C@H]3CCCCN3)CCN42)c1C(F)(F)F | 2.3 | 2000 nM | –
Cc1cc(N)nc(-c2cc3nc(OC[C@@H]4CCCN4C)nc4c3c(c2Cl)OC[C@@H]2CN(C(=O)C3CC35CNC5)CCN42)c1C(F)(F)F (mixture of isomers) | 1.3 | 2400 nM | –
